How the values were obtained:
[1] = target: T1, ATP-dependent translocase ABCB1 (Homo sapiens, UniProt P08183); assay: TP_TRANSPORTER: transepithelial transport (basal to apical) in MDR1-expressing LLC-PK1 cells; assay type: functional, cell-based; details: pig
[2] = target: T1, ATP-dependent translocase ABCB1; assay: TP_TRANSPORTER: inhibition of Cortisol transepithelial transport (basal to apical) (Cortisol: 0.011? uM, Progesterone: 50 uM) in MDR1-expressing LLC-PK1 cells; assay type: functional, cell-based; details: pig, llc-pk1, 50 µM

T1 sequence (P08183 whole entry): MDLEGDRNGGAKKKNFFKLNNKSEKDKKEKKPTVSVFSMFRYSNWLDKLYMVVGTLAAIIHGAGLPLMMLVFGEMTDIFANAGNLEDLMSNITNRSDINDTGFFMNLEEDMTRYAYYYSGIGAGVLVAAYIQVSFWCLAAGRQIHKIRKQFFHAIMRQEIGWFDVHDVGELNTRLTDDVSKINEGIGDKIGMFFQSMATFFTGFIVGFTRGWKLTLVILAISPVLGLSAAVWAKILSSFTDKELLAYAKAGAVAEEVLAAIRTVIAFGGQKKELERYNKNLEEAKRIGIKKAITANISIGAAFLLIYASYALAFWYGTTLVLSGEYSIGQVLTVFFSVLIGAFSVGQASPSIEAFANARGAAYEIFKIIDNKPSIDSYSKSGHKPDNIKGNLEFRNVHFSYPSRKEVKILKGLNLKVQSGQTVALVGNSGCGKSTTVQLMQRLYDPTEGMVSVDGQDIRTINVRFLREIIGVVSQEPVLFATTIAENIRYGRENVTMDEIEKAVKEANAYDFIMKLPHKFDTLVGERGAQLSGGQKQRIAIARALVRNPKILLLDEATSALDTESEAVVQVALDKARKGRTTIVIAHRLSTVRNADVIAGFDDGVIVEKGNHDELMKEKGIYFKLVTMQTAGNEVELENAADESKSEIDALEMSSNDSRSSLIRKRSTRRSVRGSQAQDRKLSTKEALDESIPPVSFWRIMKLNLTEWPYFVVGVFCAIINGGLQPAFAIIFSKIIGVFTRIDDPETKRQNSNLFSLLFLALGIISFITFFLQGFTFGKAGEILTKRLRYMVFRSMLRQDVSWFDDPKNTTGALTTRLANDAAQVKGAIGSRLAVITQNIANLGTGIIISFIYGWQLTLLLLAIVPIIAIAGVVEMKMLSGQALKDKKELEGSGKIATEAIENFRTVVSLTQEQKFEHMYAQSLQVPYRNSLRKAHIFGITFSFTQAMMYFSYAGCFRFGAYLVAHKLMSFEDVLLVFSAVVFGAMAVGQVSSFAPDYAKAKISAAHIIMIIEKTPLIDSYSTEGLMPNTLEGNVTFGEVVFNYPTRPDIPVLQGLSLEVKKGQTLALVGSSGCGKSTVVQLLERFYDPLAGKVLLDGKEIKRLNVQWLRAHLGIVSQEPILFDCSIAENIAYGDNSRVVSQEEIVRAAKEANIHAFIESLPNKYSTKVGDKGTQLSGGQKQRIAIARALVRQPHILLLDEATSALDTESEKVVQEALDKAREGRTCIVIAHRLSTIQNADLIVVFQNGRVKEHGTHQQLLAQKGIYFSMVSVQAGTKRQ

Compound	Activity [1]	Activity [2]
C[C@]12CCC(=O)C=C1CC[C@@H]1[C@@H]2[C@@H](O)C[C@]2(C=O)[C@@H](C(=O)CO)CC[C@@H]12 [ALDOSTERONE]	substrate [+]	–
CC(=O)[C@H]1CC[C@H]2[C@@H]3CCC4=CC(=O)CC[C@]4(C)[C@H]3CC[C@]12C [PROGESTERONE]	is not a substrate [-]	inhibitor [+]
C[C@]12CCC(=O)C=C1CC[C@@H]1[C@@H]2[C@@H](O)C[C@@]2(C)[C@H]1CC[C@]2(O)C(=O)CO [HYDROCORTISONE]	substrate [+]	–

Reference: ChEMBL document CHEMBL2073871, “Human P-glycoprotein transports cortisol, aldosterone, and dexamethasone, but not progesterone” (J Biol Chem, 1992)
